Test results reported in paper PMC10926604, “Discovery of a novel small molecule as CD47/SIRPα and PD-1/PD-L1 dual inhibitor for cancer immunotherapy” (Cell Communication and Signaling : CCS, 2024).
“Also recorded” adds a separate entry of the source.

Experiments:
[1] = biological target: hTIGIT/hPVR (Homo sapiens, UniProt P15151+Q495A1); experiment: Blockade of other immune checkpoint pathways, TIGIT/PVR; assay type: cell-based; conditions: Fig. S2
[2] = biological target: T1, human PD-L1 (hPD-L1) (Homo sapiens, UniProt Q9NZQ7); experiment: MST binding assay, human PD-L1; conditions: PD-L1-IgV-His, read-out: dissociation constant (KD) for human PD-L1
T1 construct: PD-L1-IgV-His (human: 10,084-H08H, mouse: 50,010-M08H, Sino Biological); His; purchased Sino Biological 10,084-H08H
T1 sequence (Q9NZQ7 19-127 limits assumed): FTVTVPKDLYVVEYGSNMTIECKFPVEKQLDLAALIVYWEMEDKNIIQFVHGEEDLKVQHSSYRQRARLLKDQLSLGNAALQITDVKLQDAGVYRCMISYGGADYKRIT
Description: (§1) SIPRα-IgV-His (human: SIA-H5225, mouse: SIA-M52H4, ACRO Biosystems) and PD-L1-IgV-His (human: 10,084-H08H, mouse: 50,010-M08H, Sino Biological) proteins were labeled with Red-NHS647 dye (NT-MO-L001, NanoTemper) for subsequent experiments. SMC18 (C385-0664, ChemDiv) was serially diluted using PBST (from 0.0191 μM to 200 μM) and mixed with the labeled proteins. The samples were then aspirated using standard capillaries and assayed by MST instrument (Monolith NT.115, NanoTemper), and the results were analyzed using the analytical software Monolith NT.115 system to calculate the dissociation constant (KD) values.

[3] = test system: Jurkat cells co-cultured with CHO-K1-hPD-L1 cells; experiment: Co-culture assay, IL-2 secretion of Jurkat cells with CHO-K1-hPD-L1 cells; assay type: cell-based, human; conditions: 50 μM, co-culture with CHO-K1-hPD-L1 cells 48 h
Description: Jurkat cells were stimulated with 25 ng/mL of […] (PMA, 16,561–29-8, Sigma) and 1 μg/mL of phytohemag-glutinin (PHA, L8902, Sigma) or 1 μg/mL anti-human CD3 (OKT3, BioGems and 0.5 μg/mL anti-human CD28 (CD28.2, BioGems) for 24 h. Subsequently, they were co-cultured with CHO-K1-hPD-L1 cells at a ratio of 4:1 for 48 h. SMC18 (50 μΜ) and OPBP-1 peptide (100 μM) were added as experimental group and positive control group, respectively. Four hours before the end of the co-culture, protein transport inhibitor (555,029, BD Biosciences) was added. Jurkat cells were collected and stained with anti-human CD45 antibody (HI30, eBioscience) for 30 min. The cells were then fixed and stained with anti-human IL-2-APC (MQ1-17H12, eBioscience) for another 30 min. The fluorescence intensity was analyzed by flow cytometry (BD, FACSCelesta).

[4] = test system: PD-1; experiment: Tyrosine phosphorylation assay of PD-1, Jurkat/CHO-K1-hPD-L1 co-culture; assay type: cell-based, human; conditions: 50 μM, stimulated Jurkat with CHO-K1-hPD-L1 cells, 30 min, Western blotting
Description: Jurkat cells were stimulated with of PMA (25 ng/mL) and PHA (1 μg/mL) for 24 h. Stimulated Jurkat cells (2 × 10^6 cells/well) were co-cultured with CHO-K1-PD-L1 cells (1 × 10^7 cells/well). The co-cultures were treated with PBS, SMC18 (50 μM), or anti-human PD-1 (a17188b, Biolegend) and incubated at 37℃ for 30 min. After PBS washing, the cells were collected by centrifugation and lysed. Finally, cell lysates were collected for immunoprecipitation and Western blotting.
In brief, the protein samples were separated by SDS-PAGE using a 4% stacking gel and an 8 ~ 10% main gel and transferred to a polyvinylidene difluoride (PVDF) membrane. The membrane was blocked with 5% milk at room temperature for 1–2 h and then incubated with anti-SIRPα (dilution 1:1000, AB8120, Abcam), anti-PD-1 (dilution 1:200, ab52587, Abcam) or anti-Phosphotyrosine (dilution 1:1000, 05–321, Millipore) dissolved in primary antibody dilution buffer overnight at 4 °C. Then the membrane was washed and incubated with appropriate HRP-coupled goat anti-rabbit IgG (D110058, Sangon Biotech) and HRP-coupled goat anti-mouse IgG (D110087, Sangon Biotech) for 1–2 h at room temperature. Finally, the membranes were exposed using an enhanced chemiluminescence (ECL) detection kit (P1030, Applygen). Results were analyzed by ImageJ software (NIH, Bethesda, MD, United States).

[5] = test system: GFP+ B16-OVA cells phagocytosed by BMDMs; experiment: Phagocytosis assay, BMDMs with GFP+ B16-OVA cells; assay type: cell-based, mouse; conditions: 50 μM, flow cytometry
Description: Bone marrow-derived macrophage cells (BMDMs) from C57BL/6N mice were isolated and induced with 20 ng/mL of mouse granulocyte–macrophage colony-stimulating factor (GM-CSF, 315–03, Peprotech) for 7 days, with regular medium changes and cytokine replenishment during cell induction. The cells were then harvested for subsequent experiments. Subsequently, the cells were treated with SMC18 at a concentration of 50 μΜ. The anti-CD47 antibody (clone miap301, 16–0471-81, Invitrogen) was employed as a positive control with 20 µg/mL. Phagocytosis was measured by the co-culture of macrophages with green fluorescent protein (GFP^+) tumor cells (GFP^+ MC38 and GFP^+ B16-OVA cells) at a ratio of 1:4 in serum-free medium at 37 °C for 4 h. The cells were harvested and identified by flow cytometry using anti-F4/80 antibody (BM8, 17–4801-82, eBioscience). The phagocytosis rate was calculated as the percentage F4/80^+GFP^+ cells relative to the total number of total F4/80^+ cells. For confocal microscopy detection, BMDMs were labelled with DiR dye (R-22070, Beyotime) at a final concentration of 200 μM, followed by a 30-min staining period. After washing with PBS three times, the cells were cultured with DMEM medium devoid of serum for 2 h. Subsequently, MC38-EGFP cells were seeded onto BMDMs at a density of 4 × 10^6 cells per well. […]

[6] = biological target: hTIM-3/hGal-9 (Homo sapiens, UniProt O00182+Q8TDQ0); experiment: Blockade of other immune checkpoint pathways, TIM-3/Gal-9; assay type: cell-based; conditions: Fig. S2
hTIM-3/hGal-9, sequence (Q8TDQ0 22-301): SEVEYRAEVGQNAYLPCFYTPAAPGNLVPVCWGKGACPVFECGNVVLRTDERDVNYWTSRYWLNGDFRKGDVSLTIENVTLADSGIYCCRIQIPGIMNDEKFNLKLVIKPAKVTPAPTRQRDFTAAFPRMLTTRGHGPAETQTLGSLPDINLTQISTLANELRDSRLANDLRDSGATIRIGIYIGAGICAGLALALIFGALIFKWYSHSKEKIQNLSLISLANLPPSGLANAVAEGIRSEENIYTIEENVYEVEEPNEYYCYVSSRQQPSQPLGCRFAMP
hTIM-3/hGal-9, sequence (O00182 whole entry): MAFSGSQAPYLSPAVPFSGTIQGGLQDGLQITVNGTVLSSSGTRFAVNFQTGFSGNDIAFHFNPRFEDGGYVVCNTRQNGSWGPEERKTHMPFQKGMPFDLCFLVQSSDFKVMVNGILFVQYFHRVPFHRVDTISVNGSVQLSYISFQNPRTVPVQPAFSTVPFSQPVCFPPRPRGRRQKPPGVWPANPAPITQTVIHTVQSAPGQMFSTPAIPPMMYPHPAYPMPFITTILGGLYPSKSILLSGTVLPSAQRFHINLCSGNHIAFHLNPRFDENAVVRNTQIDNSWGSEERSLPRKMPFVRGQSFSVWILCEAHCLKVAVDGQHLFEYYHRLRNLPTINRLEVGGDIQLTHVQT

[7] = biological target: hCD112R/hCD112 (Homo sapiens, UniProt Q6DKI7+Q92692); experiment: Blockade of other immune checkpoint pathways, CD112R/CD112; assay type: cell-based; conditions: Fig. S2
hCD112R/hCD112, sequence (Q6DKI7 whole entry): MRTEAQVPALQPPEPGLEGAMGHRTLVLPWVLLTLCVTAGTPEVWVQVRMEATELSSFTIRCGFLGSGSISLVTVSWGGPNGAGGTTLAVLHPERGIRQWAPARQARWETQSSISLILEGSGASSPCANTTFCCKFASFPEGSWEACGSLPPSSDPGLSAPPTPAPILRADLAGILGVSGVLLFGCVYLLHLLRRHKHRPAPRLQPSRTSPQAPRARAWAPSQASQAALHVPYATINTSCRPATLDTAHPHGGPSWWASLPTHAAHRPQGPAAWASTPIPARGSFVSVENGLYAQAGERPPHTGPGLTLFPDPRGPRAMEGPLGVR
hCD112R/hCD112, sequence (Q92692 32-538): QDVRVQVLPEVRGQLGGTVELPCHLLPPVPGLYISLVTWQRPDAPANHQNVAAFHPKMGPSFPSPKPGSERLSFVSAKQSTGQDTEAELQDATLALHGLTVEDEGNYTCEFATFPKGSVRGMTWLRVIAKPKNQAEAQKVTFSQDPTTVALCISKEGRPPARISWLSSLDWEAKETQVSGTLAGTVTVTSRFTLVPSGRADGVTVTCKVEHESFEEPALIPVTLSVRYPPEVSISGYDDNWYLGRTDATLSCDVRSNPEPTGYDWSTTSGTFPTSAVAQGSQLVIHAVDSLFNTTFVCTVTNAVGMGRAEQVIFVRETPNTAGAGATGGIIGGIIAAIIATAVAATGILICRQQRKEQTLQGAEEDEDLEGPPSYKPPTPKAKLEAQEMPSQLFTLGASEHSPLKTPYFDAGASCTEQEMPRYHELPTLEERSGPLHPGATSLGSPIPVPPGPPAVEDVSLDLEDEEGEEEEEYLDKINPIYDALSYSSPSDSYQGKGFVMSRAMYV

[8] = biological target: T2, murine PD-L1 (mPD-L1) (Mus musculus, UniProt Q9EP73); experiment: MST binding assay, murine PD-L1; conditions: PD-L1-IgV-His, read-out: dissociation constant (KD) for murine PD-L1
T2 construct: PD-L1-IgV-His (human: 10,084-H08H, mouse: 50,010-M08H, Sino Biological); His; purchased Sino Biological 50,010-M08H
T2 sequence (Q9EP73 19-127 limits assumed): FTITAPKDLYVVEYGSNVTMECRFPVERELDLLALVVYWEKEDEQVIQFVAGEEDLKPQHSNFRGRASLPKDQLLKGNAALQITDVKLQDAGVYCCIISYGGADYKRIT
Description: as §1

[9] = biological target: T3, human SIRPα (hSIRPα) (Homo sapiens, UniProt P78324); experiment: MST binding assay, human SIRPα; conditions: SIRPα-IgV-His, read-out: dissociation constant (KD) for human SIRPα
T3 construct: SIPRα-IgV-His (human: SIA-H5225, mouse: SIA-M52H4, ACRO Biosystems); His; purchased ACRO Biosystems SIA-H5225
T3 sequence (P78324 32-137 limits assumed): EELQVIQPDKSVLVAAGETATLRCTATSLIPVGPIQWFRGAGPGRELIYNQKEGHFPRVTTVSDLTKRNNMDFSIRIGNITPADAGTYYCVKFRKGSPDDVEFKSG
Description: as §1

hTIGIT/hPVR, sequence (Q495A1 22-244): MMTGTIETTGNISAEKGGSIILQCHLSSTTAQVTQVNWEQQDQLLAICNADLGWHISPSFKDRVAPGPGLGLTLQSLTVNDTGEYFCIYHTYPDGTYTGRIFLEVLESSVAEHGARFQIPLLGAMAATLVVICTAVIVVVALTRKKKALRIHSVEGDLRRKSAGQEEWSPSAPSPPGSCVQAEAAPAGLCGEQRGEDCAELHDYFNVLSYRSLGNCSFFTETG
hTIGIT/hPVR, sequence (P15151 21-417): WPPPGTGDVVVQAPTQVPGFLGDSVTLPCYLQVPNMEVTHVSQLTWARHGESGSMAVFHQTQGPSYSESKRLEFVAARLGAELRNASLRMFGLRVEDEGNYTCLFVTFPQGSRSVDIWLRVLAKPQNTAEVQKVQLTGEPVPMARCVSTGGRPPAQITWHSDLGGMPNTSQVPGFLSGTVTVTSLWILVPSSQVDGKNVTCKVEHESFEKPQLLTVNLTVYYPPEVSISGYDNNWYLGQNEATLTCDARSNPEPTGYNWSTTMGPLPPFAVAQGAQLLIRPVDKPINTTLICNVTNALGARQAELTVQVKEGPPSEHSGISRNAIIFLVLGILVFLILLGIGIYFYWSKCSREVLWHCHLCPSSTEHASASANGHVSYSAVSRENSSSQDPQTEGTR

Cc1cc(C)cc(NS(=O)(=O)c2ccc3[nH]cc(C(=O)NCCc4ccccc4)c(=O)c3c2)c1 [SMC18]
inhibitory effect on hTIGIT/hPVR pathway [1]: no blocking effect; also recorded: did not impede | Kd [2]: 29 ± 30 nM | ability of Jurkat cells to secrete IL-2 [3]: effectively restored | levels of phosphorylated PD-1 [4]: decreased | phagocytosis of B16-OVA cells by BMDMs [5]: enhances; also recorded: significantly increased | inhibitory effect on hTIM-3/hGal-9 pathway [6]: no blocking effect; also recorded: did not impede | inhibitory effect on hCD112R/hCD112 pathway [7]: no blocking effect; also recorded: did not impede | Kd [8]: 25 ± 30 nM | Kd [9]: 550 ± 100 nM
